How the values were obtained:
tumor cells = assay: Viability of tumor cells at different concentrations of cyclopamine; type: cell-based; conditions: concentration suggested for conjugation to the collagen hydrogel scaffold
Procedure: (§1) The smoothened inhibitor, cyclopamine, was evaluated to determine the effective drug concentration required to induce apoptosis in tumor cells. The viability of the tumors cells was measured at different concentrations of cyclopamine. Healthy cells (e.g., neurons and glia) were not affected by exposure to the drug.

[1] = system: Healthy cells (e.g., neurons and glia); assay: Effect of cyclopamine exposure on healthy cells; type: cell-based
Procedure: as §1

For `CC1=C2C[C@H]3[C@@H](CC=C4C[C@@H](O)CC[C@@]43C)[C@@H]2CC[C@]12O[C@@H]1C[C@H](C)CN[C@H]1[C@H]2C` [cyclopamine], the “effective drug concentration required to induce apoptosis in tumor cells” value (tumor cells) was 30 µM and the “effect of exposure to the drug on healthy cells” value [1] was “not affected”.

From US11273250B2, “Devices, systems, and methods for excavating cancer cells” (GEORGIA TECH RESEARCH CORPORATION, priority 2010, dated 2022)
